{"source": "paper PMC10175918", "about": "(Communications Biology, 2023)", "key": {"[1]": {"tested_on": "UTS2R M134A", "assay": "TGFα-shedding assay on UTS2R mutant M134A", "format": "cell-based, human", "details": "cutoff value set to −1, single replicates"}, "[2]": {"tested_on": "UTS2R T304V", "assay": "TGFα-shedding assay on UTS2R mutant T304V", "format": "cell-based, human", "details": "cutoff value set to −1, single replicates"}, "[3]": {"tested_on": "adult mouse cardiomyocytes", "assay": "Contractility under pacing of adult mouse cardiomyocytes", "format": "cell-based", "details": "10 µM remdesivir, 30 min", "description": "C57BL/6J mice for the isolation of adult mouse cardiomyocytes were purchased from Japan SLC Inc. (Shizuoka, Japan). Isolation of adult mouse ventricular cardiomyocytes was performed. Male mice were anesthetized by inhalation with isoflurane. The heart was quickly excised, and the aorta was clamped with a small vascular clamp. The heart was antegradely perfused with isolation buffer (less than 3 mL) containing 130 mM NaCl, 5.4 mM KCl, 0.5 mM MgCl2, 0.33 mM NaH2PO4, 25 mM HEPES, 22 mM glucose, and 50 μU/mL bovine insulin (Sigma) (pH 7.4, adjusted with NaOH) supplemented with 0.4 mM EGTA, followed by the perfusion of enzyme solution (10 mL) (isolation buffer containing 1 mg/mL collagenase type 2 (Worthington), 0.06 mg/mL trypsin (Sigma), 0.06 mg/mL protease (Sigma), and 0.3 mM CaCl2). Thereafter, the LV chamber was removed and cut into small pieces in an enzyme solution containing 0.2% bovine serum albumin (BSA) and 0.7 mM CaCl2. The tissue-cell suspension was filtered through a cell strainer (100 μm, Falcon) and centrifuged for 3 min at 50×g. After removing the supernatant, the cell pellet was resuspended in isolation buffer supplemented with 0.2% BSA and 1.2 mM CaCl2 and incubated for 7 min at 37 °C. […]\nMicroscopic images of cardiomyocytes were recorded for 13 seconds under pacing conditions. […] Imaging data were analyzed using Fiji software."}}, "data": [{"smiles": "CCC(CC)COC(=O)[C@H](C)N[P@](=O)(OC[C@H]1O[C@@](C#N)(c2ccc3c(N)ncnn23)[C@H](O)[C@@H]1O)Oc1ccccc1", "note": "[remdesivir]", "values": [{"measurement": "⊿pEC50 compared to WT UTS2R", "setting": "[1]", "result": -1}, {"measurement": "⊿pEC50 compared to WT UTS2R", "setting": "[2]", "result": -1}, {"measurement": "contraction of adult cardiomyocytes", "setting": "[3]", "result": "significantly impaired the contraction"}]}]}
